Reference: ChEMBL document CHEMBL1255297, “Genomewide screening for genes associated with gliotoxin resistance and sensitivity in Saccharomyces cerevisiae” (2008)
≈ marks a conversion by molar mass, not a printed value.

How the values were obtained:
Type in all cases: functional
Saccharomyces cerevisiae [1] = assay: Antimicrobial activity against Saccharomyces cerevisiae containing disruption in CYS3 gene by broth microdilution method
Saccharomyces cerevisiae [2] = assay: Antimicrobial activity against Saccharomyces cerevisiae containing disruption in IFA38 gene by broth microdilution method
Saccharomyces cerevisiae [3] = assay: Antimicrobial activity against Saccharomyces cerevisiae containing disruption in YGL235W gene by broth microdilution method
Saccharomyces cerevisiae [4] = assay: Antimicrobial activity against Saccharomyces cerevisiae containing disruption in MEF2 gene by broth microdilution method
Saccharomyces cerevisiae [5] = assay: Antimicrobial activity against Saccharomyces cerevisiae containing disruption in YLR456W gene by broth microdilution method
Saccharomyces cerevisiae [6] = assay: Antimicrobial activity against Saccharomyces cerevisiae containing disruption in YGL072C gene by broth microdilution method
Saccharomyces cerevisiae [7] = assay: Antimicrobial activity against Saccharomyces cerevisiae containing disruption in SNF1 gene by broth microdilution method
Saccharomyces cerevisiae [8] = assay: Antimicrobial activity against Saccharomyces cerevisiae containing disruption in […] gene by broth microdilution method
Saccharomyces cerevisiae [9] = assay: Antimicrobial activity against wild type Saccharomyces cerevisiae BY4741 by broth microdilution method
Saccharomyces cerevisiae [10] = assay: Antimicrobial activity against Saccharomyces cerevisiae containing disruption in RAD18 gene by broth microdilution method
Saccharomyces cerevisiae [11] = assay: Antimicrobial activity against Saccharomyces cerevisiae containing disruption in APL2 gene by broth microdilution method
Saccharomyces cerevisiae [12] = assay: Antimicrobial activity against Saccharomyces cerevisiae containing disruption in YKL037W gene by broth microdilution method
Saccharomyces cerevisiae [13] = assay: Antimicrobial activity against Saccharomyces cerevisiae containing disruption in RTG2 gene by broth microdilution method
Saccharomyces cerevisiae [14] = assay: Antimicrobial activity against Saccharomyces cerevisiae containing disruption in YOR345C gene by broth microdilution method

SMILES | MIC (Saccharomyces cerevisiae [1]) | MIC (Saccharomyces cerevisiae [2]) | MIC (Saccharomyces cerevisiae [3]) | MIC (Saccharomyces cerevisiae [4]) | MIC (Saccharomyces cerevisiae [5]) | MIC (Saccharomyces cerevisiae [6]) | MIC (Saccharomyces cerevisiae [7]) | MIC (Saccharomyces cerevisiae [8]) | MIC (Saccharomyces cerevisiae [9]) | MIC (Saccharomyces cerevisiae [10]) | MIC (Saccharomyces cerevisiae [11]) | MIC (Saccharomyces cerevisiae [12]) | MIC (Saccharomyces cerevisiae [13]) | MIC (Saccharomyces cerevisiae [14])
C[C@@H]1[C@H](O)[C@@H](C)/C=C/C=C/C=C/C=C/C=C/C=C/C=C/[C@H](O[C@@H]2O[C@H](C)[C@@H](O)[C@H](N)[C@@H]2O)C[C@@H]2O[C@](O)(C[C@@H](O)C[C@@H](O)[C@H](O)CC[C@@H](O)C[C@@H](O)CC(=O)O[C@H]1C)C[C@H](O)[C@H]2C(=O)O [AMPHOTERICIN B] | 0.25 µg/mL (≈ 0.271 µM) | 0.5 µg/mL (≈ 0.541 µM) | 0.5 µg/mL (≈ 0.541 µM) | 0.25 µg/mL (≈ 0.271 µM) | 0.5 µg/mL (≈ 0.541 µM) | 0.5 µg/mL (≈ 0.541 µM) | 0.5 µg/mL (≈ 0.541 µM) | 0.5 µg/mL (≈ 0.541 µM) | 0.125 µg/mL (≈ 0.135 µM) | 0.5 µg/mL (≈ 0.541 µM) | 0.5 µg/mL (≈ 0.541 µM) | 0.25 µg/mL (≈ 0.271 µM) | 0.5 µg/mL (≈ 0.541 µM) | 0.5 µg/mL (≈ 0.541 µM)
CC[C@H](C)C[C@H](C)CCCCCCCCC(=O)N[C@H]1C[C@@H](O)[C@@H](NCCN)NC(=O)[C@@H]2[C@@H](O)CCN2C(=O)[C@H]([C@H](O)CCN)NC(=O)[C@H]([C@H](O)[C@@H](O)c2ccc(O)cc2)NC(=O)[C@@H]2C[C@@H](O)CN2C(=O)[C@H]([C@@H](C)O)NC1=O [CASPOFUNGIN] | 0.028 µg/mL (≈ 0.0256 µM) | 0.007 µg/mL (≈ 0.0064 µM) | 0.007 µg/mL (≈ 0.0064 µM) | 0.028 µg/mL (≈ 0.0256 µM) | 0.007 µg/mL (≈ 0.0064 µM) | 0.007 µg/mL (≈ 0.0064 µM) | 0.007 µg/mL (≈ 0.0064 µM) | 0.007 µg/mL (≈ 0.0064 µM) | 0.007 µg/mL (≈ 0.0064 µM) | 0.007 µg/mL (≈ 0.0064 µM) | 0.007 µg/mL (≈ 0.0064 µM) | 0.028 µg/mL (≈ 0.0256 µM) | 0.007 µg/mL (≈ 0.0064 µM) | 0.007 µg/mL (≈ 0.0064 µM)
C[C@@H]1C[C@@H]([C@H](O)CC2CC(=O)NC(=O)C2)C(=O)[C@@H](C)C1 [CYCLOHEXIMIDE] | 0.025 µg/mL (≈ 0.0889 µM) | 0.025 µg/mL (≈ 0.0889 µM) | 0.025 µg/mL (≈ 0.0889 µM) | 0.025 µg/mL (≈ 0.0889 µM) | 0.025 µg/mL (≈ 0.0889 µM) | 0.025 µg/mL (≈ 0.0889 µM) | 0.025 µg/mL (≈ 0.0889 µM) | 0.025 µg/mL (≈ 0.0889 µM) | 0.025 µg/mL (≈ 0.0889 µM) | 0.025 µg/mL (≈ 0.0889 µM) | 0.025 µg/mL (≈ 0.0889 µM) | 0.025 µg/mL (≈ 0.0889 µM) | 0.025 µg/mL (≈ 0.0889 µM) | 0.025 µg/mL (≈ 0.0889 µM)
OC(Cn1cncn1)(Cn1cncn1)c1ccc(F)cc1F [FLUCONAZOLE] | 32 µg/mL (≈ 104 µM) | 16 µg/mL (≈ 52.2 µM) | 16 µg/mL (≈ 52.2 µM) | 32 µg/mL (≈ 104 µM) | 16 µg/mL (≈ 52.2 µM) | 16 µg/mL (≈ 52.2 µM) | 16 µg/mL (≈ 52.2 µM) | 16 µg/mL (≈ 52.2 µM) | 32 µg/mL (≈ 104 µM) | 16 µg/mL (≈ 52.2 µM) | 16 µg/mL (≈ 52.2 µM) | 32 µg/mL (≈ 104 µM) | 16 µg/mL (≈ 52.2 µM) | 16 µg/mL (≈ 52.2 µM)
CN1C(=O)[C@]23CC4=CC=C[C@H](O)[C@H]4N2C(=O)[C@@]1(CO)SS3 [GLIOTOXIN] | 0.06 µg/mL (≈ 0.184 µM) | 2 µg/mL (≈ 6.13 µM) | 8 µg/mL (≈ 24.5 µM) | 0.06 µg/mL (≈ 0.184 µM) | 8 µg/mL (≈ 24.5 µM) | 16 µg/mL (≈ 49 µM) | 8 µg/mL (≈ 24.5 µM) | 2 µg/mL (≈ 6.13 µM) | 0.5 µg/mL (≈ 1.53 µM) | 8 µg/mL (≈ 24.5 µM) | 8 µg/mL (≈ 24.5 µM) | 0.125 µg/mL (≈ 0.383 µM) | 8 µg/mL (≈ 24.5 µM) | 16 µg/mL (≈ 49 µM)
